From patent US20230117034A1, “PYRAZOLOTRIAZINES” (Bayer Aktiengesellschaft, priority 2019, published 2023)

Tests used:
CDK12/CycK = CDK12/CycK (Homo sapiens, UniProt Q9NYV4); test: CDK12/CycK high ATP kinase assay (TR-FRET, 2 mM ATP); format: biochemical; conditions: 2 mM ATP (high ATP); median; read-out: CDK12/CyclinK, 2 mM ATP (high ATP), IC50-[mol/l] (median)
How it was run: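 His-tagged human CDK12/CycK (~0.75 nM) pre-incubated 15 min with compound, then 60 min at 22 °C with 2 mM ATP and 1 µM biotinylated peptide (HEPES pH 7.5, 20 mM MgCl2). EDTA stop; phospho-Ser62 antibody/Eu anti-rabbit and streptavidin-XL665 TR-FRET, 665/620 nm ratio normalised to give IC50.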

[1] = system: CAL-120, human breast adenocarcinoma cells; test: Proliferation assay CAL-120 (crystal violet, 4 days); format: cell-based; conditions: Homo sapiens, CAL-120, 96 h, CAL-120 cells, median, read-out: Prolif-CAL-120, IC50-[mol/l] (median)
How it was run: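 Following a 24 h attachment in 10% fetal calf serum medium, cells receive test substance over 0.01-10 µmol/L for 4 days. Dye retained by fixed cells is eluted and read at 595 nm; cell number change is referenced to day-0 and untreated wells.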

CDK12/CycK, sequence (Q9NYV4 with tags, fused parts or gaps): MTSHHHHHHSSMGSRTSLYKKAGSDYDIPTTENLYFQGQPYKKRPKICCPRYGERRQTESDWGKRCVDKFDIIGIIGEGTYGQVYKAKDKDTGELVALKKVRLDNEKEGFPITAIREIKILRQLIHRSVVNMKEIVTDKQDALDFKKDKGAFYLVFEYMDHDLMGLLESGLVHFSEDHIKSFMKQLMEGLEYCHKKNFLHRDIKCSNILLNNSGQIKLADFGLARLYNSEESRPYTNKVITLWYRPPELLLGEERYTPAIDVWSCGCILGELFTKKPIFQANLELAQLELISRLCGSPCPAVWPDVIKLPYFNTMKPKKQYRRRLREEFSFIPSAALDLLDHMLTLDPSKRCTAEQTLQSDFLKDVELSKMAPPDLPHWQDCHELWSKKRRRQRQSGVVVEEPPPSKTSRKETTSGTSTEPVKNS
CDK12/CycK, sequence (O75909 1-300 partner limits assumed): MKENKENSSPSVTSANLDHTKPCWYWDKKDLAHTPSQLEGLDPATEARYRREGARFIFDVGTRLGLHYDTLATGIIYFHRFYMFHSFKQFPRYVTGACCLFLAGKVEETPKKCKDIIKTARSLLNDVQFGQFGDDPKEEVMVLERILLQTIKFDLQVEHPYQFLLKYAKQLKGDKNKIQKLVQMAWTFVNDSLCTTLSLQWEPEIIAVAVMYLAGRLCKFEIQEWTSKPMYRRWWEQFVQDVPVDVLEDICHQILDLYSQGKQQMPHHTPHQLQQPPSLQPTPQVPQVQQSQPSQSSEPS

| IC50 (CDK12/CycK) | IC50 [1] | SMILES |
| --- | --- | --- |
| 547 nM | 32.4 nM | Clc1ccc(-c2cnc(CNc3nc(N4CCOCC4)nc4c(Br)cnn34)[nH]2)cc1 [Example 72, 8-bromo-N-{[5-(4-chlorophenyl)-1H-imidazol-2-yl]methyl}-2-(morpholin-4-yl)pyrazolo[1,5-a][1,3,5]triazin-4-amine] |
| 664 nM | 23 nM | C[C@@H]1CN(c2nc(NCc3nc4ccccc4[nH]3)n3ncc(Br)c3n2)C[C@H](C)O1 [Example 73, N-[(1H-benzimidazol-2-yl)methyl]-8-bromo-2-[(2R,6S)-2,6-dimethylmorpholin-4-yl]pyrazolo[1,5-a][1,3,5]triazin-4-amine] |
| > 20000 nM | 311 nM | FC(F)(F)Oc1ccccc1-c1nnc(CNc2nc(N3CCOCC3)nc3c(Br)cnn23)[nH]1 [Example 74, 8-bromo-2-(morpholin-4-yl)-N-({5-[2-(trifluoromethoxy)phenyl]-4H-1,2,4-triazol-3-yl}methyl)pyrazolo[1,5-a][1,3,5]triazin-4-amine] |
| > 3770 nM | 53.2 nM | Fc1ccccc1-c1nnc(CNc2nc(N3CCOCC3)nc3c(Br)cnn23)[nH]1 [Example 75, 8-bromo-N-{[5-(2-fluorophenyl)-4H-1,2,4-triazol-3-yl]methyl}-2-(morpholin-4-yl)pyrazolo[1,5-a][1,3,5]triazin-4-amine] |
| > 5330 nM | 110 nM | COC1CCN(c2nc(NCc3nnc(-c4ccccc4)[nH]3)n3ncc(Br)c3n2)CC1 [Example 76, 8-bromo-2-(4-methoxypiperidin-1-yl)-N-[(5-phenyl-4H-1,2,4-triazol-3-yl)methyl]pyrazolo[1,5-a][1,3,5]triazin-4-amine] |
| 10100 nM | 338 nM | COC(=O)C1CCN(c2nc(NCc3nnc(-c4ccccc4)[nH]3)n3ncc(Br)c3n2)CC1 [Example 77, methyl 1-(8-bromo-4-{[(5-phenyl-4H-1,2,4-triazol-3-yl)methyl]amino}pyrazolo[1,5-a][1,3,5]triazin-2-yl)piperidine-4-carboxylate] |
| 726 nM | 25.7 nM | C[C@@H]1CN(c2nc(NCc3nnc(-c4ccccc4)[nH]3)n3ncc(Br)c3n2)C[C@H](C)O1 [Example 78, 8-bromo-2-[(2R,6S)-2,6-dimethylmorpholin-4-yl]-N-[(5-phenyl-4H-1,2,4-triazol-3-yl)methyl]pyrazolo[1,5-a][1,3,5]triazin-4-amine] |
| 566 nM | 4.67 nM | Fc1cccc(-c2cnc(CNc3nc(N4CCOCC4)nc4c(Br)cnn34)[nH]2)c1 [Example 79, 8-bromo-N-{[5-(3-fluorophenyl)-1H-imidazol-2-yl]methyl}-2-(morpholin-4-yl)pyrazolo[1,5-a][1,3,5]triazin-4-amine] |
| 1180 nM | 14.2 nM | COc1cccc(-c2cnc(CNc3nc(N4CCOCC4)nc4c(Br)cnn34)[nH]2)c1 [Example 80, 8-bromo-N-{[5-(3-methoxyphenyl)-1H-imidazol-2-yl]methyl}-2-(morpholin-4-yl)pyrazolo[1,5-a][1,3,5]triazin-4-amine] |
| 765 nM | 4.14 nM | Clc1cccc(-c2cnc(CNc3nc(N4CCOCC4)nc4c(Br)cnn34)[nH]2)c1 [Example 81, 8-bromo-N-{[5-(3-chlorophenyl)-1H-imidazol-2-yl]methyl}-2-(morpholin-4-yl)pyrazolo[1,5-a][1,3,5]triazin-4-amine] |
| 916 nM | 85.2 nM | FC(F)(F)Oc1cccc(-c2cnc(CNc3nc(N4CCOCC4)nc4c(Br)cnn34)[nH]2)c1 [Example 82, 8-bromo-2-(morpholin-4-yl)-N-({5-[3-(trifluoromethoxy)phenyl]-1H-imidazol-2-yl}methyl)pyrazolo[1,5-a][1,3,5]triazin-4-amine] |
| 1040 nM | 12.1 nM | FC(F)(F)c1cccc(-c2cnc(CNc3nc(N4CCOCC4)nc4c(Br)cnn34)[nH]2)c1 [Example 83, 8-bromo-2-(morpholin-4-yl)-N-({5-[3-(trifluoromethyl)phenyl]-1H-imidazol-2-yl}methyl)pyrazolo[1,5-a][1,3,5]triazin-4-amine] |
